According to PubChem BioAssay (NCI):
Where “and” joins values, the source holds several entries; their conditions need not be identical. Equal values may be shown once.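 Tested at 5 concentrations; 48 h exposure; 96-well plates; endpoints linearly interpolated, else capped at highest concentration. Abbreviation: GI50, concentration required for 50% inhibition of growth. TGI is the concentration that stops growth completely.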

Experiments:
Experiment in all cases: NCI tumour cell line growth inhibition, 48 h
MALME-3M melanoma = system: MALME-3M melanoma
NCI/ADR-RES ovarian = system: NCI/ADR-RES ovarian
OVCAR-3 ovarian = system: OVCAR-3 ovarian
OVCAR-8 ovarian = system: OVCAR-8 ovarian
PC-3 prostate = system: PC-3 prostate
RPMI-8226 leukemia = system: RPMI-8226 leukemia
TK-10 renal = system: TK-10 renal

Compound | GI50 (MALME-3M melanoma) | TGI (MALME-3M melanoma) | GI50 (NCI/ADR-RES ovarian) | TGI (NCI/ADR-RES ovarian) | GI50 (OVCAR-3 ovarian) | TGI (OVCAR-3 ovarian) | GI50 (OVCAR-8 ovarian) | TGI (OVCAR-8 ovarian) | GI50 (PC-3 prostate) | TGI (PC-3 prostate) | GI50 (RPMI-8226 leukemia) | TGI (RPMI-8226 leukemia) | TGI (TK-10 renal) | GI50 (TK-10 renal)
CC(C)(C)c1cc(NC(=O)Cc2ccc(-c3cnc4cc(-c5cnn(CCN6CCOCC6)c5)ccc4n3)cc2)no1 | 0.187 µM and 0.278 µM and 0.0505 µM | 11.3 µM and 2.82 µM | 1.08 µM and 0.745 µM and 0.117 µM | 50 µM and > 100 µM and > 3 µM | 0.482 µM and 0.675 µM and 0.105 µM | 50 µM and > 100 µM and > 3 µM | 0.481 µM and 0.507 µM and 0.121 µM | 50 µM and > 100 µM and > 3 µM | 0.481 µM and 1.02 µM and 0.135 µM | 50 µM and > 100 µM and > 3 µM | 0.249 µM and 0.609 µM and 0.0985 µM | 50 µM and > 100 µM and > 3 µM | 50 µM and > 100 µM and > 3 µM | 
COc1ccc2nc3cc(Cl)ccc3c(NCCN)c2c1 |  |  |  |  |  |  |  |  | 1.72 µM | 3.38 µM | 2.04 µM | 5.07 µM | 3.18 µM | 1.76 µM
CCCCCN(CCCCC)CC(O)c1ccc(Cl)c2ccccc12 (configuration not stated) | 15.4 µM | 32 µM | 11.1 µM | 24.8 µM | 12.4 µM | 26.5 µM | 16.6 µM | 36.6 µM | 12.3 µM | 31.5 µM | 6.43 µM | 27.6 µM | 33.9 µM | 15.5 µM
CO[C@H]1C=C[C@@]23c4cc5c(cc4CO[C@]2(O)CN(C)[C@H]3C1)OCO5 |  | > 100 µM |  | > 100 µM |  | > 100 µM |  | > 100 µM |  | > 100 µM |  | > 100 µM | > 100 µM | 
Cc1ccc(NC(=O)c2sc3nc(C)c(C(O)c4ccccc4)cc3c2N)cc1 (configuration not stated) | 0.476 µM | 53.7 µM | 0.39 µM | 18.9 µM | 0.351 µM | 11.4 µM | 0.611 µM | > 100 µM | 0.429 µM | 20.7 µM | 0.421 µM | 43.3 µM | 36.4 µM | 2.12 µM
Cn1c2ccccc2c2c3[nH]c(=O)[nH]c(=O)c3c3c4ccccc4n(C)c3c21 | 2.03 µM | 6.14 µM | 2.89 µM | 17 µM | 2.38 µM | 7 µM | 2.94 µM | 14.1 µM | 30.1 µM | > 100 µM |  |  | 16.5 µM | 1.91 µM
CC[C@H](C)[C@H]1O[C@]2(C=C[C@@H]1C)C[C@@H]1C[C@@H](C/C=C(\C)[C@@H](O[C@H]3C[C@H](OC)[C@@H](O[C@H]4C[C@H](OC)[C@@H](NC)[C@H](C)O4)[C@H](C)O3)[C@@H](C)/C=C/C=C3\CO[C@@H]4[C@H](O)C(C)=C[C@@H](C(=O)O1)[C@]34O)O2 | 1.85 µM | 3.69 µM | 3.05 µM | 11.3 µM | 3.44 µM | 11.8 µM | 3.84 µM | 14.5 µM | 2.78 µM | 11.7 µM | 3.32 µM | 13.6 µM | 4.99 µM | 1.96 µM
C/C(=N\Nc1ccc(Cl)cn1)c1ccccn1 | 0.111 µM | 44.1 µM | 0.037 µM | > 31.6 µM |  | 14.9 µM | 0.0704 µM | > 100 µM | 0.0464 µM | > 100 µM | 0.0572 µM | 12.3 µM | 97.7 µM | 2.06 µM
CON(C)C(=O)N1N=C(c2cc(F)ccc2F)SC1(CCCN)c1ccccc1 (configuration not stated) | 13.3 µM and 10.5 µM | 31.6 µM and 28.3 µM | 0.544 µM and 0.122 µM | 5.34 µM and 2.87 µM | 0.0298 µM and < 0.01 µM | 12.4 µM and 12.2 µM | 0.0266 µM and < 0.01 µM | 18.9 µM and 19.8 µM | 0.0179 µM and < 0.01 µM | 15 µM and 14.2 µM | 0.0131 µM and < 0.01 µM | 11 µM and 9.04 µM | 18.8 µM and 17.7 µM | 3.19 µM and 2.33 µM
